Values after ≈ are worked out from the molar mass of the structure shown.
What was measured:
[1] = Pka of Bezuclastinib (Table 1); assay type: physicochemical; details: Weak Base
Source text: (§1) Bezuclastinib has a high melting point and is insoluble in aqueous and most organic solvents. No suitable salt or co-crystal was found.

[2] = LogD of Bezuclastinib (Table 1); assay type: physicochemical
Source text: as §1

[3] = Aqueous solubility of Bezuclastinib; assay type: physicochemical; details: aqueous buffer
Method: Compound (I) was first disclosed in U.S. Pat. No. 9,676,748 B2 and U.S. Pat. No. 10,301,280 B2. In the almost 10 years since, Compound (I) has proven to be difficult to prepare in a tablet form suitable for commercial development. In particular, Compound (I) has a very high melting point (>365° C.) and is practically insoluble in aqueous conditions (0.32 ug/mL at pH 7.0), and most organic solvents. In addition, no suitable salt or co-crystal has been found for of Compound (I), which itself readily crystalizes when forming tablets. Finally, existing tablet forms of Compound (I) allowed a relatively small proportion of API to be loaded into the tablet form, necessitating repeated dosing of many tablets, potentially jeopardizing patient compliance.
as §1

[4] = Solubility in biorelevant media; assay type: physicochemical; details: fassgf or other biorelevant, thermodynamic from solid; all biorelevant media (0.01N HCl, FaSSIF, SIF, FaSSGF), 37° C.; read-out: free drug concentration (solubility)
Method: Biorelevant media included 0.01N hydrochloric acid, Fast State Simulated Intestinal Fluid (FaSSIF) with and without bile salts, Simulated Intestinal Fluid (SIF) with various concentrations of bile salts (0, 0.5% and 1%) and Fasted State Simulated Gastric Fluid (FaSSGF). A saturated suspension was prepared in each media and the samples were stirred overnight using a magnetic stirrer. The free drug concentration was determined by subjecting the samples to 7 minutes in an ultracentrifuge at 470,000× gravity. A 100 μL aliquot was withdrawn and diluted in 5× in DMSO and Methanol and tested by the HPLC method described in Table 2. Six (6) replicates were performed in each media. In all cases, bezuclastinib was practically insoluble (free drug concentration ≤1.2 μg/mL).

[5] = Solubility in organic solvents; assay type: physicochemical; details: organic solvent or mixture, thermodynamic from solid, 21° C., read-out: free drug concentration (solubility)
Method: (Table 3). A saturated suspension was prepared in each solvent and the samples were stirred overnight using a magnetic stirrer. The free drug concentration was determined by subjecting the samples to 7 minutes in an ultracentrifuge at 470,000× gravity. A 100 μL aliquot was withdrawn and diluted in 5× in DMSO and Methanol and tested by the HPLC method. Three (3) replicates were performed in each solvent. Bezuclastinib was poorly soluble (free drug concentration <5.0 mg/mL), other than DMSO (free drug concentration <20 mg/mL).

[6] = Influence of pH on solubility; assay type: physicochemical; details: Simulated Intestinal Fluid with 0.5% bile salts, fassgf or other biorelevant, thermodynamic from solid; SIF with 0.5% bile salts, 37° C., pH 4.0, 5.5 and 6.0; read-out: free drug concentration (solubility)
Method: A saturated bezuclastinib suspension was prepared in each media and the samples were stirred overnight using a magnetic stirrer. The total drug concentration was determined by subjecting the samples to 3 minutes in a microcentrifuge at 19,500× gravity. The free drug concentration was determined by subjecting the samples to 7 minutes in an ultracentrifuge at 470,000× gravity. A 100 μL aliquot was withdrawn and diluted in 5× in DMSO and Methanol and tested by the HPLC method. Six (6) replicates were performed in each media. In all conditions, bezuclastinib was poorly soluble (free drug concentration <20 μg/mL).

[7] = Non-sink dissolution test in simulated intestinal fluid, no gastric transfer; assay type: physicochemical; details: SIF 0.5% bile salt, pH 6.5, 37° C., 1 mg API per mL
Method: Non-sink dissolution testing was used to determine the kinetic solubility as well as the extent and duration of supersaturation of amorphous dispersions. Spray dried samples were examined under non sink dissolution testing conditions in FIGS. 2-5. Non sink testing was performed with and without a gastric transfer at various bile salt concentrations in biorelevant media including simulated intestinal fluid at pH 6.5 and FaSSIF at pH 6.5. Total drug and free drug concentration were determined as described in Example 2.
Samples were loaded at a concentration of 1 mg API per mL of media. The SDD's tested were 10% and 20% drug loading HPMCAS-L SDD, 20% HPMCAS-H and 20% HPMCAS-L with 5 mg/mL HPMCAS-H added.

[8] = human, in vivo, po
Source text: (§2) This Example summarizes a single-center, open-label, 2-period, randomized, crossover study of Formulations A and B of bezuclastinib at single ascending dose levels in healthy adult subjects to assess pharmacokinetics and relative bioavailability. Subjects were randomized to receive either a single dose of Formulation A fasted, or a single dose of Formulation B fasted. After a washout period of 21 days, subjects were then crossed over to receive the other formulation. […] Blood draws were taken pre-dose, and 0.5, 1, 2, 3, 4, 6, 8, 12, 16, 24, 48, 72, 96, 120, 144, 168, 192, and 336 h post-dose.

clinical = details: human, in vivo, po
Source text: as §2

[9] = system: cells with activating c-kit mutations in the catalytic region; details: Ma et al., 2002; cited from earlier work

SMILES	pKa [1]	logD [2]	solubility ([3]; aqueous conditions, pH 7.0, read-out: solubility in aqueous conditions) [µg/mL]	solubility ([3]; aqueous medium, pH = 7.0, read-out: Aqueous solubility) [µg/mL]	solubility [4] [µg/mL]	solubility ([5]; DMSO) [µg/mL]	solubility ([5]; organic solvents of Table 3 other than DMSO) [µg/mL]	solubility [6] [µg/mL]	Microcentrifuge Assay @ 5 min (total drug) ([7]; 5 min) [µg/mL]	Ultracentrifuge Assay @ 5 min (free drug) ([7]; 5 min) [µg/mL]	Microcentrifuge Assay @ 60 min (total drug) ([7]; 60 min) [µg/mL]	Ultracentrifuge Assay @ 60 min (free drug) ([7]; 60 min) [µg/mL]	Microcentrifuge Assay @ 6 hrs (total drug) ([7]; 6 hrs) [µg/mL]	Ultracentrifuge Assay @ 6 hrs (free drug) ([7]; 6 hrs) [µg/mL]	median time to maximum concentration [8] [h]	half-life (clinical) [h]	inhibition of cells with c-kit mutations in the catalytic region [9]
Cc1n[nH]c(C(=O)Nc2cnc3[nH]c(-c4ccccc4)cc3c2)c1C [Bezuclastinib, 3,4-dimethyl-N-(2-phenyl-1H-pyrrolo[2,3-b]pyridin-5-yl)-1H-pyrazole-5-carboxamide]	2.86	3.46	0.32 (≈ 0.966 µM)	0.31 (≈ 0.935 µM)	≤ 1.2	< 20000	< 5000	< 20	2.0	1.5	3.4	1.6	2.0	1.7	12 to 16	48.6 to 71.4	–
Cc1ccc(NC(=O)c2ccc(CN3CCN(C)CC3)cc2)cc1Nc1nccc(-c2cccnc2)n1 [STI571]	–	–	–	–	–	–	–	–	–	–	–	–	–	–	–	–	did not inhibit the cells

Reference: patent US20240216347A1, “BEZUCLASTINIB FORMULATIONS” (Cogent Biosciences, Inc., priority 2022, published 2024)
